This is an account of results in ChEMBL document CHEMBL1129654, “2-Carbomethoxy-3-(diarylmethoxy)-1 alpha H, 5 alpha H-tropane analogs: synthesis and inhibition of binding at the dopamine transporter and comparison with piperazines of the GBR series” (J Med Chem, 1996).

Experiment [1] deals with Sodium-dependent serotonin transporter. Description: Inhibition of [3H]citalopram binding to the serotonin transporter in the cynomolgus (macaca fascicularis) monkey caudate-putamen. It is filed as tissue-based, Cercopithecidae.
Experiment [2] can be described thus: Inhibition of [3H]WIN-35428 binding to the dopamine transporter in the cynomolgus (macaca fascicularis) monkey caudate-putamen.

One may read the IC50 as the concentration needed to halve the response being measured.

`COC(=O)C1C2CCC(C[C@@H]1OC(c1ccccc1)c1ccc(I)cc1)N2C` (stereo partly drawn): the IC50 in experiment [1] amounted to 9.28 µM. On the same count and under the same terms, the figure for `COC(=O)C1C2CCC(C[C@@H]1OC(c1ccc(Br)cc1)c1ccc(Br)cc1)N2C` (stereo partly drawn) is 2.43 µM; for `COC(=O)C1C2CCC(C[C@@H]1OC(c1ccc(F)cc1)c1ccc(F)cc1)N2CCCc1ccc(Br)cc1` (stereo partly drawn) it is 0.234 µM; for `COC(=O)C1C2CCC(C[C@@H]1OC(c1ccc(F)cc1)c1ccc(F)cc1)N2Cc1ccccc1` (stereo partly drawn) it is 4.97 µM. Take `COC(=O)C1C2CCC(C[C@@H]1OC(c1ccccc1)c1ccccc1)N2C` (stereo partly drawn): the IC50 in experiment [1] amounted to 10.1 µM. In experiment [1], `COC(=O)C1C2CCC(C[C@@H]1OC(c1ccccc1)c1ccc(C)cc1)N2C` (stereo partly drawn) registered an IC50 of 13.2 µM. As to `COC(=O)C1C2CCC(C[C@@H]1OC(c1ccc(F)cc1)c1ccc(F)cc1)N2CCCc1ccc(I)cc1` (stereo partly drawn), the figures for the IC50 in experiment [1] and in experiment [2] were 2.2 µM and 0.119 µM, respectively. In the case of `COC(=O)C1C2CCC(C[C@@H]1OC(c1ccc(F)cc1)c1ccc(F)cc1)N2CCCc1ccccc1` (stereo partly drawn), in experiment [1], the IC50 turned out to be 0.0197 µM.

Consider `COC(=O)C1C2CC[C@@H](C[C@@H]1OC(c1ccc(F)cc1)c1ccc(F)cc1)N2C` (stereo partly drawn), for which the IC50 in experiment [1] came out at 3.53 µM. Turning to `COC(=O)C1C2CCC(C[C@@H]1OC1c3ccccc3-c3ccccc31)N2C` (stereo partly drawn), the values for the IC50 in experiment [1] and in experiment [2] were 3.44 µM and 6.03 µM, respectively. Regarding `COC(=O)C1C2CCC(C[C@@H]1OC(c1ccc(Cl)cc1)c1ccc(Cl)cc1)N2C` (stereo partly drawn), the 50% inhibitory concentration (IC50) in experiment [1] is 3.36 µM; in experiment [2], 0.0914 µM. `COC(=O)C1C2CCC(C[C@@H]1OC(c1ccccc1)c1ccc(Cl)cc1)N2C` (stereo partly drawn): the IC50 in experiment [1] came to 5.96 µM. Regarding `COC(=O)C1C2CCC(C[C@@H]1OC(c1ccccc1)c1ccc(F)cc1)N2C` (stereo partly drawn), the results for the IC50 in experiment [1] and in experiment [2] were 4.93 µM and 0.0132 µM, respectively.

For `COC(=O)C1C2CCC(C[C@@H]1OC(c1ccc(F)cc1)c1ccc(F)cc1)N2CCCCCc1ccccc1` (stereo partly drawn), the IC50 in experiment [1] amounted to 0.55 µM; in experiment [2], 0.099 µM. The corresponding values for `COC(=O)C1C2CCC(C[C@@H]1OC(c1ccc(Br)cc1)c1ccc(I)cc1)N2C` (stereo partly drawn) are 4.39 µM and 0.389 µM. In experiment [1], `CCC(O[C@H]1CC2CCC(C1C(=O)OC)N2C)c1ccccc1` (stereo partly drawn) had an IC50 of 21 µM. On to `COC(=O)C1C2CCC(C[C@@H]1OC(c1ccccc1)c1ccc(Br)cc1)N2C` (stereo partly drawn), for which the IC50 in experiment [1] came to 5.77 µM; in experiment [2] it was 0.024 µM. For the molecule `COC(=O)C1C2CCC(C[C@@H]1OC(c1ccc(I)cc1)c1ccc(I)cc1)N2C` (stereo partly drawn), the IC50 in experiment [1] worked out at 8.55 µM. On to `COC(=O)C1C2CCC(C[C@@H]1OC(c1ccc(C)cc1)c1ccc(C)cc1)N2C` (stereo partly drawn), for which the IC50 in experiment [1] was 9.8 µM; in experiment [2], 0.24 µM. As to `CN1C2CCC1CC(OC(c1ccc(F)cc1)c1ccc(F)cc1)C2` (stereo not drawn) [DIFLUOROBENZTROPINE], the IC50 in experiment [1] was 5.34 µM.
